Measurements taken from patent US6447782B1, “Lipid extract of the Skeletonema algae” (Parfums Christian Dior, priority 1998, dated 2002).

Tested on: 3′,5′-cAMP phosphodiesterase (PDE)
Experiment: Test for inhibitory activity on PDE (hydrolysis of cAMP to AMP, AMP measured by HPLC)
Type: biochemical
Conditions: reaction time 5 minutes, lipid extract 0.1% in DMSO, theophylline 0.2% in DMSO
Method: The principle of the test is based on the hydrolysis of cyclic 3′5′-adenosine monophosphate(cAMP) to adenosine monophosphate (AMP). The formation of AMP is measured by HPLC (high performance liquid chromatography) analysis.
The solutions of the reagents are prepared in 0.05 M Tris-HCl buffer at pH 7.5.
The lipid extracts to be tested are at a concentration of 0.1% in DMSO.
The same experiment is carried out with the reference active product theophylline (H. Kather, A. Scheurer, Effects of different phosphodiesterase inhibitors on the antilipolytic action of insulin in human adipocytes: Horm. Metabol. Res. 19 (1987) 379-381). Likewise, B. B. Fredholm, E. Lindger, Acta pharmacol. et toxicol., 54 (1984), pp. 64-71, “The effect of alkylxanthines and other phosphodiesterase inhibitors on adenosine receptor mediated decrease in lipolysis and cyclic AMP accumulation in rat fat cells” . . . These tests are reference tests for those skilled in the art.
The theophylline tested (SIGMA/Ref. T1633) is at a concentration of 0.2% in DMSO.
The composition of the reaction media is described below. […]
The amount of AMP formed is measured after a reaction time of 5 minutes by calculating the integration area of the AMP peak on the chromatogram produced by the HPLC apparatus (KONTRON S. A.). […]
The amount of AMP due to the action of PDE is measured after a reaction time of 5 minutes. […]

A (%) percentage inhibition of PDE: 35%
Integration area of AMP (DMSO control 40.80): 26.52
SMILES: Cn1c(=O)c2[nH]cnc2n(C)c1=O [Theophylline, theophylline]
